Target: T1, Mitochondrial import inner membrane translocase subunit TIM23 (Saccharomyces cerevisiae (strain ATCC 204508 / S288c), UniProt P32897)
T1 sequence (P32897 whole entry): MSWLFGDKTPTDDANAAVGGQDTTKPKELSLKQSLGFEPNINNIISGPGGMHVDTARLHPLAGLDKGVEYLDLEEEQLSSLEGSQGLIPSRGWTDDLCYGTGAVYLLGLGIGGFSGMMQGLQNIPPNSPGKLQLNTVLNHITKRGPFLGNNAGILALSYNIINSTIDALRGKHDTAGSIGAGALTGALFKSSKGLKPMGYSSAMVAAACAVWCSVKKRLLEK
Experiment: analog potency on tim23-1 yeast growth – luminescence, S. cerevisiae, SAR follow-up (AID 602375)

Row | Compound | IC50
1 | Cc1ccc2nc(-n3c(O)c[nH]c3=S)sc2c1 | 50.3 µM
2 | C(=CN=Nc1nc2ccccc2[nH]1)Cc1ccccc1 [MLS000390936] | 11.2 µM
3 | Cc1c2c(n(Cc3ccco3)c1C)N=CN1C=CS(=O)(=O)NC21 (stereo not given) [8-(furan-2-ylmethyl)-9,10-dimethyl-3,4-dihydropyrrolo[1,2]pyrimido[3,5-b][1,2,4]thiadiazine 2,2-dioxide] | > 99 µM

Further lines, results first:

Row | IC50 | Compound
4 | > 99 µM | CCOc1ccc2nc(-n3c(O)c[nH]c3=S)sc2c1 [3-(6-Ethoxy-benzothiazol-2-yl)-2-thioxo-imidazolidin-4-one]
5 | 44.3 µM | Cc1ccc(C2NN=C(c3ccc(Cl)cc3Cl)S2)cc1 (stereo not given) [MLS-0463404.0001]

— BindingDB's records for doi:10.7270/Q25D8QFV (Burnham Center For Chemical Genomics, 2012)
